In article PMC7217877, “N-AS-triggered SPMs are direct regulators of microglia in a model of Alzheimer’s disease” (Nature Communications, 2020):
Where “and” joins values, the source holds several entries; their conditions need not be identical. Equal entries are not always repeated.

Assays:
APP/PS1 mice = test: fluorescent bead phagocytosis assay in live brain slices (Fig 5b); format: in vivo, mouse; conditions: APP/PS1 + N-AS, individual values
Experimental: Transgenic mouse lines over-expressing the hAPP695swe (APP) and presenilin-1M146V (PS1) mutations were originated from GlaxoSmithKline (Harlow, UK)[32] and maintained as described previously. We purchased 5×FAD mice from Jackson Labs (Stock number. 34840-JAX). Because APP/PS1 and 5xFAD mice show sex differences in disease progression, we used only male mice. To examine possible therapeutic effect of N-AS and aspirin in APP/PS1 mice, the N-AS (30 mg kg^−1, Sigma-Aldrich, 01912) was injected daily s.c. for 8 weeks to 7-months-old APP/PS1 mice until the age of 9 months, and aspirin (2 mg kg^−1, Sigma-Aldrich, A5376)[33] was administrated orally to 7-months-old APP/PS1 mice for 8 weeks. Also, to confirm possible therapeutic efficacy of N-AS in 5×FAD, the N-AS (30 mg kg^−1, Sigma-Aldrich, 01912) was injected daily s.c. for 4 weeks to 3-months-old 5×FAD mice until the age of 4 months. Block randomization method was used to allocate the animals to experimental groups. To eliminate the bias, we were blinded in experimental progress such as data collection and data analysis. […]
The phagocytic activity of adult microglia in the cortex of live brain slices was analyzed as following protocol. […] The sections were analyzed with a laser-scanning confocal microscope (FV3000; Olympus). MetaMorph software (Molecular Devices) was used to quantification.

microglia = test: immunofluorescence of ac-S565 and COX2 in primary cells; format: cell-based, C57BL/6 mice; conditions: Ab 10mM, replicates
Experimental: (§1) To confirm the generation and roles of N-AS in neurons, cells from E18 C57BL/6 mice were prepared as previously described. Cortices were dissected and then dissociated followed by incubation in papain (Worthington) at 37 °C for 15 min. Neurons were plated on poly-L-lysine-coated coverslips with neuronal culture medium, serum-free Neurobasal medium (Gibco) containing 2% B27 supplements (Gibco), 1 mM Glutamax supplement (Gibco), and 100 U ml^−1 streptomycin/ 100 U ml^−1 penicillin (Gibco) at 37 °C in a humidified atmosphere of 5% CO2. Aβ 1–42 (10 μM, 24 h, Invitrogen, 03112) was exposed to neurons and the cells were analyzed for the generation and roles of N-AS. Primary astrocyte cultures were prepared from C57BL/6 mice as described previously. […] The human microglia treated with Aβ 1–42 and/or zileuton was incubated with N-AS (2.5 μM, 2 h, Sigma-Aldrich, 01912), and were analyzed for the generation and roles of N-AS.
(§2) Thioflavin S (Sigma-Aldrich) staining was carried out according to previously described procedures. […] The sections were analyzed with a laser-scanning confocal microscope (FV3000; Olympus) or with a BX51 microscope (Olympus). MetaMorph software (Molecular Devices) was used to quantification. Three-dimensional reconstruction of microglia was recorded and analyzed using IMARIS software (Bitplane)[11]. […]

astrocyte = test: as above; format: cell-based, C57BL/6 mice; conditions: Ab 10mM, replicates
Experimental: as §1, §2

| Molecule | number of microglial phagocytes normalized to the total number of microglia (APP/PS1 mice) | ac-S565 with COX2, immunofluorescence quantification (Fig 3c) (microglia) | ac-S565 with COX2, immunofluorescence quantification (Fig 3c) (astrocyte) |
| --- | --- | --- | --- |
| CCCCCCCCCCCCC/C=C/[C@@H](O)[C@H](CO)NC(C)=O [N-AS, N-((2S,3R,E)-1,3-Dihydroxyoctadec-4-en-2-yl)acetamide] | 0.002363 and 0.002382 and 0.001493 and 0.001786 and 0.001435 |  |  |
| Ab: Aβ 1–42 (Invitrogen, 03112) used to induce an AD environment in cells |  | 0.1091 and 0.1473 and 0.02354 and 0.07315 and 0.06621 and 0.05168 | 0.03307 and 0.0783 and 0.03875 and 0.05053 and 0.0718 and 0.07636 |
